# Experimental data: publication PMC6701155, “New perspectives on the plant PARP family: Arabidopsis PARP3 is inactive, and PARP1 exhibits predominant poly (ADP-ribose) polymerase activity in response to DNA damage” (BMC Plant Biology, 2019)
# Tests used:
# AtPARP1 (TRXH-AtPARP1) = target: T1, AtPARP1 (TRXH-AtPARP1) (Arabidopsis thaliana, UniProt Q9ZP54); test: auto-PARylation assay, immunoblot with anti-pan-ADPR reagent; format: biochemical; conditions: 20 mM 3-AB, 1 mM NAD+, 500 nM broken DNA, 25 °C, pH 7.5, Mg2+
# T1 construct: gene PARP1; full-length coding region in pET32a(+), N-terminal thioredoxin-His (TRXH) tag kept, E. coli Origami (DE3), nickel-purified
# T1 sequence (Q9ZP54 1-983): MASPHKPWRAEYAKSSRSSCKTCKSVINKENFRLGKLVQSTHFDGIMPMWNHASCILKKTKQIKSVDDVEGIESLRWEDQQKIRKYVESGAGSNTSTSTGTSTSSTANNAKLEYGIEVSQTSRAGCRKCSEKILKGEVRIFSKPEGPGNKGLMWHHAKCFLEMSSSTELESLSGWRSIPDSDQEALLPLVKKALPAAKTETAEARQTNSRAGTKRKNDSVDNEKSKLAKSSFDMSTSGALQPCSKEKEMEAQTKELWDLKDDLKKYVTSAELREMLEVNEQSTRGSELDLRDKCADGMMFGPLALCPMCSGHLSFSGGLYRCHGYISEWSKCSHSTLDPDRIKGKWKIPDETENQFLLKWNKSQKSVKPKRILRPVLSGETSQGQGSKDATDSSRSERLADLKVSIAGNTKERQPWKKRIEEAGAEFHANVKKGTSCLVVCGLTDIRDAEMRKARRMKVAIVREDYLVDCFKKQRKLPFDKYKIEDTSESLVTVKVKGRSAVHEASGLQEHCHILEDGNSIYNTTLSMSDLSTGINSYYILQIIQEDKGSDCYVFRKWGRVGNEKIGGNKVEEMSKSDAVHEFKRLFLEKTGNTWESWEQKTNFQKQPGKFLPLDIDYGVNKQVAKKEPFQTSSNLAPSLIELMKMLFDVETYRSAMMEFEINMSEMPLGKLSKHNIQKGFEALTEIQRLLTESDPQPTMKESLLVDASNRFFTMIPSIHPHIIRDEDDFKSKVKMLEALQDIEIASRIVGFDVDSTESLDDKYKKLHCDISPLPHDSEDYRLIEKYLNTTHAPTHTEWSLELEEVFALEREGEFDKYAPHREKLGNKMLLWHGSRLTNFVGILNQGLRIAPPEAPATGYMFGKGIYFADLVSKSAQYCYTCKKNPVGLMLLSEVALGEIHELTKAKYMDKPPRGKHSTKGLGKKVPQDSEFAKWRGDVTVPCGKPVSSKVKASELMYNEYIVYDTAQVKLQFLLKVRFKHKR
# AtPARP2 (TRXH-AtPARP2) = target: T2, AtPARP2 (TRXH-AtPARP2) (Arabidopsis thaliana, UniProt Q11207); test: as above; format: biochemical; conditions: 1 mM NAD+, 500 nM broken DNA, 25 °C, pH 7.5, Mg2+
# T2 construct: gene PARP2; an MBP/MBD fusion was also tested
# T2 sequence (Q11207 whole entry, the tested form may be a part): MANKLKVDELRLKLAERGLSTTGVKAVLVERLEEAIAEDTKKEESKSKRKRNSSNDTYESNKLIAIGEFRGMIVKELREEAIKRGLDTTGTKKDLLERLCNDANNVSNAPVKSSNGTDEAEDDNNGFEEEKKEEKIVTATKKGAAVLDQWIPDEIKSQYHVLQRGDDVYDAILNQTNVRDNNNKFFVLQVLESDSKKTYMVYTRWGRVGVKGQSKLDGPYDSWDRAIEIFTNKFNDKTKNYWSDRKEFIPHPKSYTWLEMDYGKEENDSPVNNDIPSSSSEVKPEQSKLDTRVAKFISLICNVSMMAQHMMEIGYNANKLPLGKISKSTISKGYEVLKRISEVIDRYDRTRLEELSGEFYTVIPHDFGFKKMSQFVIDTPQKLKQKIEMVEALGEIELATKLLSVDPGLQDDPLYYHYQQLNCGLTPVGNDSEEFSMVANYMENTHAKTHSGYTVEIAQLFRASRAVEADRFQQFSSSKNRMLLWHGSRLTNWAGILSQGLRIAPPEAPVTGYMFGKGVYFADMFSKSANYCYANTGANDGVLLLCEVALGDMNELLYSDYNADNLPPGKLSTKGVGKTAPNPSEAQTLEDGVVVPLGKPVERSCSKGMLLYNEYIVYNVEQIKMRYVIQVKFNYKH
smiles,measurement,setting,value
NC(=O)c1cccc(N)c1 [3-AB],"auto-PARylation assay, immunoblot with anti-pan-ADPR reagent",AtPARP1 (TRXH-AtPARP1),The signal was abolished by the PARP inhibitor 3-AB
NC(=O)c1ccc[n+]([C@@H]2O[C@H](COP(=O)(O)OP(=O)(O)OC[C@H]3O[C@@H](n4cnc5c(N)ncnc54)[C@H](O)[C@@H]3O)[C@@H](O)[C@H]2O)c1 [NAD^+],"auto-PARylation assay, immunoblot with anti-pan-ADPR reagent",AtPARP2 (TRXH-AtPARP2),AtPARP2 produced shorter PAR chains than AtPARP1 within the same incubation time periods
